Experimental data as given in patent US9408387B2, “Safening 6-amino-2-(substituted phenyl)-5-substituted-4-pyrimidinecarboxylate herbicide injury on cereal crops” (Dow AgroSciences LLC, priority 2009, dated 2016).

What was measured:
Format in all cases: in vivo
[1] = test system: winter barley (Hordeum vulgare L; HORVW); assay: Postemergence herbicidal safening in cereal crops, greenhouse, visual injury: winter barley; details: 20-22 d
Method: (§1) Evaluation of Postemergence Herbicidal Safening in Cereal Crops
(§2) Seeds of the desired test plant species were planted in Sun Gro MetroMix® 306 planting mixture, which typically has a pH of 6.0 to 6.8 and an organic matter content of about 30 percent, in plastic pots with a surface area of 103.2 square centimeters (cm^2). When required to ensure good germination and healthy plants, a fungicide treatment and/or other chemical or physical treatment was applied. The plants were grown for 7-36 days (d) in a greenhouse with an approximate 14-hour (h) photoperiod which was maintained at about 18° C. during the day and 17° C. during the night. Nutrients and water were added on a regular basis and supplemental lighting was provided with overhead metal halide 1000-Watt lamps as necessary. The plants were employed for testing when they reached the second or third true leaf stage.
(§3) Treatments consisted of the acids or esters of compounds 1-10 and cloquintocet-mexyl (CQC-M), fenchlorazole-ethyl, mefenpyr-diethyl alone and in combination. Weighed amounts of acid or methyl esters of the compounds of formula (I) were dissolved in a volume of 97:3 v/v acetone/dimethylsulfoxide (DMSO) to obtain concentrated solutions. […] The concentrated solutions of the test compound were diluted with the addition of an aqueous mixture containing acetone, water, isopropyl alcohol, DMSO, Agri-Dex crop oil concentrate, and Triton® X-77 surfactant in a 64.7:26.0:6.7:2.0:0.7:0.01 v/v ratio. Test compounds were diluted to the appropriate application rate with a dilution solution which was prepared by mixing the appropriate volume of 97:3 v/v acetone/DMSO and the appropriate volume of an aqueous mixture containing acetone, water, isopropyl alcohol, DMSO, Agri-Dex crop oil concentrate, and Triton® X-77 surfactant in a 64.7:26.0:6.7:2.0:0.7:0.01 v/v ratio. Compound requirements are based upon a 12 mL application volume at a rate of 187 liters per hectare (L/ha). The concentrated solutions of the safener were prepared following the same procedure. Weighed amounts of safener were dissolved in a volume of 97:3 v/v acetone/DMSO to obtain concentrated safener solutions.
(§4) Spray solutions of the herbicide safener and test compound mixtures were prepared by adding the concentrated solutions to the appropriate amount of dilution solution to form 12 mL spray solution with active ingredients in combinations.
(§5) Formulated compounds were applied to the plant material with an overhead Mandel track sprayer equipped with 8002E nozzles calibrated to deliver 187 L/ha over an application area of 0.503 square meters (m^2) at a spray height of 18 inches (43 centimeters (cm)) above average plant canopy. Control plants were sprayed in the same manner with the solvent blank.
(§6) The treated plants and control plants were placed in a greenhouse as described above and watered by sub-irrigation to prevent wash-off of the test compounds. After 20-22 d, the condition of the test plants as compared with that of the control plants was determined visually and scored on a scale of 0 to 100 percent where 0 corresponds to no injury and 100 corresponds to complete kill.
(§7) Colby's equation was used to determine the herbicidal effects expected from the mixtures (Colby, S. R. Calculation of the synergistic and antagonistic response of herbicide combinations. Weeds 1967, 15, 20-22.).
(§8) The following equation was used to calculate the expected activity of mixtures containing two active ingredients, A and B: Expected=A+B−(A×B/100)
(§9) A=observed efficacy of active ingredient A at the same concentration as used in the mixture.
(§10) B=observed efficacy of active ingredient B at the same concentration as used in the mixture.

[2] = test system: spring wheat (Triticum aestivum L; TRZAS); assay: Postemergence herbicidal safening in cereal crops, greenhouse, visual injury: spring wheat; details: Triticum aestivum, post-emergence, 480 h, 20-22 d, read-out: TRZAS Ob (visual injury)
Method: as §1, §2, §3, §4, §5, §6, §7, §8, §9, §10

[3] = test system: winter wheat (Triticum aestivum L; TRZAW); assay: Postemergence herbicidal safening in cereal crops, greenhouse, visual injury: winter wheat; details: 20-22 d
Method: as §1, §2, §3, §4, §5, §6, §7, §8, §9, §10

[4] = test system: AMARE; assay: Postemergence herbicidal activity, greenhouse, visual injury: AMARE; details: 20-22 d
Method: as §1, §2, §3, §4, §5, §6, §7
(§11) The following equation was used to calculate the expected activity of mixtures containing two active ingredients, A and B: Expected=A+B−(A×B/100) […]

[5] = test system: purple deadnettle (Lamium purpureum L; LAMPU); assay: Postemergence herbicidal activity, greenhouse, visual injury: purple deadnettle; details: Lamium purpureum, post-emergence, 480 h, 20-22 d, read-out: LAMPU Ob (visual injury)
Method: as §1, §2, §3, §4, §5, §6, §7, §8, §9, §10

[6] = test system: spring barley (Hordeum vulgare L; HORVS); assay: Postemergence herbicidal safening in cereal crops, greenhouse, visual injury: spring barley; details: Hordeum vulgare, post-emergence, 480 h, 20-22 d, read-out: HORVS Ob (visual injury)
Method: as §1, §2, §3, §4, §5, §6, §7, §8, §9, §10

[7] = test system: durum wheat (Triticum durum L; TRZDU); assay: Postemergence herbicidal safening in cereal crops, greenhouse, visual injury: durum wheat; details: 20-22 d
Method: as §1, §2, §3, §4, §5, §6, §7, §8, §9, §10

[8] = test system: GALAP; assay: Postemergence herbicidal activity, greenhouse, visual injury: GALAP; details: 20-22 d
Method: as §1, §2, §3, §4, §5, §6, §7, §11

In the case of `COc1c(Cl)ccc(-c2nc(N)c(Cl)c(C(=O)O)n2)c1F` [Compound 1, 6-amino-5-chloro-2-(4-chloro-2-fluoro-3-methoxyphenyl)pyrimidine-4-carboxylic acid], the “HORVW Ob (visual injury)” value ([1]; herbicide alone 70 g/ha) is reported as 15%, the “HORVW Ob (visual injury)” value ([1]; herbicide alone 140 g/ha) is reported as 40% and the pest or weed control at 70 g/ha ([2]; herbicide alone 70 g/ha) is reported as 25%. The pest or weed control at 140 g/ha ([2]; herbicide alone 140 g/ha) was 45%, the “TRZAW Ob (visual injury)” value ([3]; herbicide alone 70 g/ha) was 35% and the “TRZAW Ob (visual injury)” value ([3]; herbicide alone 140 g/ha) was 40%. For the same compound, the “AMARE Ob (visual injury)” value ([4]; herbicide alone 70 g/ha) was 100%, the “AMARE Ob (visual injury)” value ([4]; herbicide alone 140 g/ha) was 100% and the pest or weed control at 70 g/ha ([5]; herbicide alone 70 g/ha) was 95%. The pest or weed control at 140 g/ha ([5]; herbicide alone 140 g/ha) was 99%, the pest or weed control at 70 g/ha ([6]; herbicide alone 70 g/ha) was 15% and the pest or weed control at 140 g/ha ([6]; herbicide alone 140 g/ha) was 30%. The “TRZDU Ob (visual injury)” value ([7]; herbicide alone 70 g/ha) was 15%, the “TRZDU Ob (visual injury)” value ([7]; herbicide alone 140 g/ha) was 35% and the “GALAP Ob (visual injury)” value ([8]; herbicide alone 70 g/ha) was 95%. The “GALAP Ob (visual injury)” value ([8]; herbicide alone 140 g/ha) was 95%.
